Where “and” joins values, the source holds several entries; their conditions need not be identical. Equal entries are not always repeated. Blank lines part the entries; values can stand above or below the compound they belong to.
System: 292921-168-R-J2-PDC complex spheroid viability
Test: Anticancer human tumor 292921-168-R-J2-PDC patient-derived pancreatic carcinoma cell line growth inhibition
Settings: for viability, T/C: stronger effect = lower value
From the text: Multicellular complex tumor spheroid response to LSD1 Inhibitor Iadademstat in combination with a variety of drugs and investigational agents in selected tumor cell lines
The current study was undertaken to assess response to LSD1 inhibitors in combination with standard-of-care drugs and investigational agents in solid tumor complex spheroid models as well as in the K-562 leukemia. Complex spheroids include a stromal component modeled by human endothelial cells (HUVEC) and fibroblasts modeled by human mesenchymal stem cells (MSCs). The concentration ranges selected for each drug and investigational agent were based upon clinically achievable concentrations if the clinical Cmax of the agent was known.
Compounds. The drugs and investigational agents used in this study are listed on Table 1. All of the agents used, including staurosporine (NSC755774) and gemcitabine (NSC613327), were obtained from the Developmental Therapeutics Program, NCI. FDA-approved anticancer drugs are available from the NCI at http://dtp.nci.nih.gov/branches/dscb/oncology_drugset_explanation.html. Drugs and investigational agents were >95% pure by proton nuclear magnetic resonance (NMR) and liquid chromatography/mass spectrometry (LC/MS). Stock solutions were prepared at 400x in DMSO, stored at -70 degrees C, and diluted in fresh medium prior to their use. The final concentration of DMSO in cell culture wells never exceeded 0.25% (v/v). The FDA-approved anticancer drug set is available from the Developmental Therapeutics Program at https://dtp.cancer.gov/organization/dscb/obtaining/available_plates.htm. All drugs and investigational agents were tested over a range starting from a high concentration at or near the clinical Cmax and decreasing in half-log increments. If the clinical Cmax for an agent had not been determined, the highest concentration tested was 10 microM.
Cell Lines. The patient-derived cancer cell (PDC) lines: 292921-168-R-J2-PDC, K24384-001-R-PDC, and 521955-158-R2-J5-PDC pancreatic carcinomas, 556581-035-R-J1 ovarian carcinoma, 324938-238-R-J1-PDC, 855422-203-R-J1-PDC and 883617-216-R-J1-PDC urothelial bladder carcinomas, 743489-274-T-PDC renal cell carcinoma, 138582-R-J1 Merkel cell tumor, K60290-347-R-J1 and K57222-313-R-J1-PDC glioblastomas, 653999-131-R-J2-PDC, LG0703-F948-PDC, and 349418-098-R-PDC non-small cell lung carcinomas, 885512-296-R-J2-PDC, 171881-019-R-J1-PDC breast carcinomas and 186277-243-T-J2-PDC and 233499-124-R-J2-PDC colon carcinomas were obtained from the NCI Patient-Derived Models Repository (PDMR, https://pdmr.cancer.gov). The established cell lines NCI/ADR-RES (RRID:CVCL_14520 and OVCAR-5 (RRID:CVCL_1628) ovarian carcinomas, 786-O (RRID:CVCL_1051) and A498 (RRID:CVCL_A498) renal cell carcinoma, NCI-H211 (ATCC, cat. CRL-5824; RRID:CVCL_1529), NCI-H196 (ATCC, cat. CRL-5823, RRID:CVCL_1509), SW 1271 (ATCC, cat. CRL-2177, RRID:CVCL_1716) and NCI-H1876 (ATCC, cat. CRL-5902, RRID:CVCL_1503) small cell lung carcinomas, MDA-MB-231 (RRID:CVCL_0062) and MDA-MB-468 (RRID:CVCL_0419)breast carcinomas (10-12). Pooled donor human umbilical vein endothelial cells (HUVEC, Lonza, cat. CC-2519) and human mesenchymal stem cells (hMSC, Lonza, cat. PT-2501) were purchased from Lonza (Walkersville, MD).
Cell Culture. All cells were maintained in an incubator at 37 degrees C and 5% CO2 with 95% humidity. The PDC lines were cultured according to standard operating procedures established by the NCI PDMR (https://pdmr.cancer.gov). Briefly all PDCs were thawed and cultured in Matrigel-coated flasks prepared with a working solution of 1X Ham's F-12 nutrient mix, without supplementation (Invitrogen, Waltham, MA, cat. 11765054), 100 U/mL penicillin-streptomycin (Invitrogen, cat. 15140122), and 2.5% Matrigel (Corning Inc., Corning, NY, cat. 354248) for the first three passages. […]

[1] = curve of first compound, second compound 0.1 µM
[2] = curve of first compound, second compound 0.316 µM
[3] = curve of first compound, second compound 1 µM
[4] = curve of first compound, second compound 3.16 µM
[5] = curve of first compound, second compound 10 µM
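Also: seven day compound exposure before luminescent viability read.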
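For viability, T/C in this document: 100% = DMSO vehicle control wells.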

IC50 (curve of compound): 24.9 nM and 28.3 nM
SMILES: Nc1ccccc1NC(=O)c1ccc(CNC(=O)OCc2cccnc2)cc1
viability, T/C (compound 0.00949 µM): 67.9% and 65.7% | viability, T/C (compound 0.03 µM): 45.2% and 49.2% | viability, T/C (compound 0.0949 µM): 31% and 31.7% | viability, T/C (compound 0.3 µM): 17.2% and 19.8% | viability, T/C (compound 0.949 µM): 4.09% and 5.39% | viability, T/C (compound 3 µM): 0.29% and 0.27%

SMILES: CC1COCCN1c1cc(C2(S(C)(=N)=O)CC2)nc(-c2ccnc3[nH]ccc23)n1 (configuration not stated) + NC1CC1c1ccc(-c2cccc(O)c2)cc1
IC50 [1]: 368 nM | IC50 [2]: 318 nM | IC50 [3]: 293 nM | IC50 [4]: 253 nM | IC50 [5]: 104 nM | viability, T/C (second compound 0.1 µM, first compound 0.0316 µM): 88.3% | viability, T/C (second compound 0.1 µM, first compound 0.1 µM): 82% | viability, T/C (second compound 0.1 µM, first compound 0.316 µM): 51% | viability, T/C (second compound 0.1 µM, first compound 1 µM): 28.8% | viability, T/C (second compound 0.1 µM, first compound 3.16 µM): 15.2% | viability, T/C (second compound 0.1 µM, first compound 10 µM): 11.4% | viability, T/C (second compound 0.316 µM, first compound 0.0316 µM): 66.8% | viability, T/C (second compound 0.316 µM, first compound 0.1 µM): 58.8% | viability, T/C (second compound 0.316 µM, first compound 0.316 µM): 51.8% | viability, T/C (second compound 0.316 µM, first compound 1 µM): 26.5% | viability, T/C (second compound 0.316 µM, first compound 3.16 µM): 15.4% | viability, T/C (second compound 0.316 µM, first compound 10 µM): 11.4% | viability, T/C (second compound 1 µM, first compound 0.0316 µM): 63.1% | viability, T/C (second compound 1 µM, first compound 0.1 µM): 61.6% | viability, T/C (second compound 1 µM, first compound 0.316 µM): 48.9% | viability, T/C (second compound 1 µM, first compound 1 µM): 25.5% | viability, T/C (second compound 1 µM, first compound 3.16 µM): 13.2% | viability, T/C (second compound 1 µM, first compound 10 µM): 11.5% | viability, T/C (second compound 3.16 µM, first compound 0.0316 µM): 59.4% | viability, T/C (second compound 3.16 µM, first compound 0.1 µM): 63.6% | viability, T/C (second compound 3.16 µM, first compound 0.316 µM): 46.3% | viability, T/C (second compound 3.16 µM, first compound 1 µM): 23.2% | viability, T/C (second compound 3.16 µM, first compound 3.16 µM): 13.7% | viability, T/C (second compound 3.16 µM, first compound 10 µM): 11.8% | viability, T/C (second compound 10 µM, first compound 0.0316 µM): 50.9% | viability, T/C (second compound 10 µM, first compound 0.1 µM): 53.3% | viability, T/C (second compound 10 µM, first compound 0.316 µM): 39.6% | viability, T/C (second compound 10 µM, first compound 1 µM): 27.1% | viability, T/C (second compound 10 µM, first compound 3.16 µM): 12.2% | viability, T/C (second compound 10 µM, first compound 10 µM): 11.4%

SMILES: NS(=O)(=O)OCC1CC(n2ccc3c(NC4CCc5ccccc54)ncnc32)CC1O (configuration not stated) + NC1CC1c1ccc(-c2cccc(O)c2)cc1
IC50 [1]: 17.4 nM | IC50 [2]: 17.3 nM | IC50 [3]: 17.4 nM | IC50 [4]: 17.9 nM | IC50 [5]: 16.4 nM | viability, T/C (second compound 0.1 µM, first compound 0.00949 µM): 87.4% | viability, T/C (second compound 0.1 µM, first compound 0.03 µM): 16.4% | viability, T/C (second compound 0.1 µM, first compound 0.0949 µM): 5.35% | viability, T/C (second compound 0.1 µM, first compound 0.3 µM): 2.15% | viability, T/C (second compound 0.1 µM, first compound 0.949 µM): 2.62% | viability, T/C (second compound 0.1 µM, first compound 3 µM): 1.96% | viability, T/C (second compound 0.316 µM, first compound 0.00949 µM): 86.8% | viability, T/C (second compound 0.316 µM, first compound 0.03 µM): 16% | viability, T/C (second compound 0.316 µM, first compound 0.0949 µM): 5.14% | viability, T/C (second compound 0.316 µM, first compound 0.3 µM): 2.21% | viability, T/C (second compound 0.316 µM, first compound 0.949 µM): 1.99% | viability, T/C (second compound 0.316 µM, first compound 3 µM): 2.75% | viability, T/C (second compound 1 µM, first compound 0.00949 µM): 89.1% | viability, T/C (second compound 1 µM, first compound 0.03 µM): 14.7% | viability, T/C (second compound 1 µM, first compound 0.0949 µM): 4.08% | viability, T/C (second compound 1 µM, first compound 0.3 µM): 2.39% | viability, T/C (second compound 1 µM, first compound 0.949 µM): 2.73% | viability, T/C (second compound 1 µM, first compound 3 µM): 2.93% | viability, T/C (second compound 3.16 µM, first compound 0.00949 µM): 91% | viability, T/C (second compound 3.16 µM, first compound 0.03 µM): 16.4% | viability, T/C (second compound 3.16 µM, first compound 0.0949 µM): 5.76% | viability, T/C (second compound 3.16 µM, first compound 0.3 µM): 2.49% | viability, T/C (second compound 3.16 µM, first compound 0.949 µM): 3.17% | viability, T/C (second compound 3.16 µM, first compound 3 µM): 2.38% | viability, T/C (second compound 10 µM, first compound 0.00949 µM): 76.1% | viability, T/C (second compound 10 µM, first compound 0.03 µM): 21.5% | viability, T/C (second compound 10 µM, first compound 0.0949 µM): 5.5% | viability, T/C (second compound 10 µM, first compound 0.3 µM): 2.88% | viability, T/C (second compound 10 µM, first compound 0.949 µM): 2.28% | viability, T/C (second compound 10 µM, first compound 3 µM): 2.43%

From PubChem BioAssay AID1918934 (Molecular Pharmacology Branch, DTP, NCI, 2023)
